Test results as given in a melting point compilation (Tetko et al.; mined from patent text by program, amines drawn as free bases though some values may be those of a salt).

Compared with `CC(C)(C)OC(=O)COc1ccc(/C=C/C(=O)C(F)(F)F)cc1`, `C=CC(=O)OCCCCCCOc1ccc(C=O)cc1` is lower in melting point: 112 to 113 °C for the first, 30 °C for the second.

Compared with `CCN1CCC(O)(c2cccc(Cl)c2F)C1` (configuration not stated), `O=C(Oc1ccc(Cl)c(OCC2CC2(Cl)Cl)c1)N1CCSC1` (configuration not stated) is higher in melting point: 71 to 74 °C for the first, 74 to 79.5 °C for the second.

First: Cc1ccnc(NC(=O)Nc2cccc3c2C2CCCCN2C3=O)c1 (configuration not stated)
Second: Cc1cccc(N2C(=O)NCc3cccnc32)c1
The melting point of the first is lower: 178 to 180 °C for the first, 212 to 214 °C for the second.

First: CC(C)C1COCc2nc3c(N)nc4ccccc4c3n21 (configuration not stated)
Second: CC(=O)OCc1cc2c3ccccc3nc(=O)n2[nH]1
The melting point of the first is higher: 249 to 250 °C for the first, 186 to 187 °C for the second.

Compared with `CCOCCn1c(C(=O)C2CCN(C(=O)OC(C)(C)C)CC2)nc2ccccc21`, `O=C(O)c1cccc(CN2CCC(c3cn(Cc4ccco4)c4ccccc34)CC2)c1` is higher in melting point: 96 to 98 °C for the first, 154 to 155 °C for the second.

First: CCOC(=O)c1nc2scc(COCc3ccccc3)c2c(=O)[nH]1
Second: CCOC(=O)c1cn(Cc2ccccc2)nc1NC(=O)NCc1ccccc1
The melting point of the first is higher: 155 to 156 °C for the first, 82 to 83 °C for the second.

First: Cc1ccc(OCCN2CCN(c3nc(N)nc(-c4cc(Cl)ccc4Cl)n3)CC2)cc1
Second: COc1cc(OCCN2CCCCC2)ccc1/C=C/c1cc(/C=C/c2ccc3cc[nH]c3c2)n[nH]1
The melting point of the first is lower: 140 to 141 °C for the first, 150 to 155 °C for the second.

First: CCCCCc1ccc(C(N)C(=O)O)[nH]1 (configuration not stated)
Second: CC(C)COC(=O)C(C#N)=CNCCc1ccco1
The melting point of the first is higher: 190 to 195 °C for the first, 42 to 44 °C for the second.

First: CN(C)C(=O)c1cc(-c2ccccc2)c(=O)n2c1-c1cc(Cl)ccc1CN2
Second: O=C(O)CCc1oc(-n2cnc3ccccc32)nc1-c1ccc(Cl)cc1
The melting point of the first is higher: 250 to 252 °C for the first, 217 to 218 °C for the second.

First: CC(N1CCN(c2ncn(Cc3ccc(C(F)(F)F)cc3)n2)CC1)C(O)(Cn1cncn1)c1ccc(F)cc1F (configuration not stated)
Second: CN(C)S(=O)(=O)c1cccc(NC(=O)c2cnn3c(C(F)(F)F)cc(-c4ccc(C(F)(F)F)cc4)nc23)c1
The melting point of the first is lower: 69 to 72 °C for the first, 210 °C for the second.

First: COCc1cc(O)n2nc(SCc3ccccc3)nc2n1
Second: Cc1oc(-c2ccccc2)nc1COc1ccc(CN(O)C(N)=O)cc1F
The melting point of the first is higher: 213 °C for the first, 143 to 144 °C for the second.

Compared with `c1ccc(C2NCCOC2c2ccccc2)cc1` (configuration not stated), `O=C1c2ccccc2C2(c3ccccc3)NCCCCN12` (configuration not stated) is higher in melting point: 70 to 72 °C for the first, 180 to 181 °C for the second.

First: CC(C)(N)CCOc1ccc(Cl)nn1
Second: COc1ccc2c(Cc3c(Cl)cncc3Cl)nnc(NN)c2c1
The melting point of the first is lower: 63.5 to 65 °C for the first, 297 to 299 °C for the second.

First: COc1ccc2c(c1)Sc1ccc(F)cc1C(O)C2 (configuration not stated)
Second: CCCCc1ccc(-c2ccc(OC)cc2F)nc1
The melting point of the first is higher: 74 to 76 °C for the first, 23.3 °C for the second.

Compared with `CCCc1c(OCCCCCC(=O)c2cc(OC)c(OC)c(C(C)C)c2)ccc(C(=O)O)c1O`, `COc1cc2c(cc1O)CCN(CC(=O)c1ccc(OC)c(OC)c1)C2` is higher in melting point: 113 to 115 °C for the first, 149 to 150 °C for the second.

First: C#CCn1c2ccccc2c2sccc(=O)c21
Second: C=Cc1nnc2ccc3ccccc3n12
The melting point of the first is higher: 144 °C for the first, 117 to 118 °C for the second.

First: Oc1cc(O)c2c(-c3cc(F)cc(F)c3)c(Br)oc2c1
Second: OC[C@H](O)COc1nc(Oc2ccc(F)cc2F)nc2[nH]nc(-c3ccccc3Cl)c12
The melting point of the first is lower: 121 to 122 °C for the first, 179 to 181 °C for the second.

First: Cc1ccc(-c2ccccc2C(=O)NC(C)(C)C)cc1
Second: O=C(O)c1ccccc1Oc1ccc(F)cc1
The melting point of the first is lower: 105 to 106 °C for the first, 146 to 147 °C for the second.

First: O=C(O)[C@@H]1CCCN1Cc1cc2cc3c(cc2c2cc(OCc4ccccc4)ccc12)OCO3
Second: O=C(O)c1cc(NC(=O)C(CS)Cc2ccccc2)ccc1N1CCCC1 (configuration not stated)
The melting point of the first is lower: 147 to 149 °C for the first, 196 to 198 °C for the second.

First: COC(=O)C(C)(C)OCc1cc2nc(C(F)(F)F)ccc2n1S(=O)(=O)c1ccc2ncsc2c1
Second: COCOc1ccc(-c2ncc3ncc(N4CCNCC4=O)cc3n2)cc1
The melting point of the first is lower: 124 to 127 °C for the first, 200 to 202 °C for the second.

First: COc1ccc(-c2[nH]c3ccccc3c(=O)c2C(=O)O)cc1
Second: COc1ccc(-c2cc(C(=O)O)n(C)n2)cc1
The melting point of the first is higher: over 300 °C for the first, 190 to 193 °C for the second.

`Cc1ccc2c(n1)sc1c(S)nnnc12` and `Cc1csc2ccc(C(O)=S)cc12` cannot be ordered by melting point: 205 to 208 °C for the first, 205 to 207 °C for the second.

`C[Si]1(C)CCCCCC[Si](C)(C)O[Si](C)(C)CCCCCC[Si](C)(C)O1` and `CCCC[C@H](OCC[C@]1(C(=O)N2CCC(OCOC)CC2)C=CC=CC1)C(=O)N[C@@H](CC1CCCCC1)[C@@H](O)C(F)(F)CN(C)C` cannot be ordered by melting point: 48 to 50 °C for the first, 47 to 49 °C for the second.

First: NS(=O)(=O)c1ccc(-c2c(-c3ccccc3)noc2COCC(F)(F)C(F)(F)CO[N+](=O)[O-])cc1
Second: O=S(=O)(c1ccc(O)cc1)c1c(-c2ccccc2)oc2ccccc12
The melting point of the first is lower: 46 °C for the first, 166 to 168 °C for the second.

First: CSN=C1C(=O)N2C(C(=O)OC(c3ccccc3)c3ccccc3)=C(CSc3nnnn3C)CSC12 (configuration not stated)
Second: COc1cn(-c2cc(-c3cnn(C)c3)ccc2F)nc(-c2ccnn2-c2ccccc2)c1=O
The melting point of the first is higher: 213 to 214 °C for the first, 93 to 102 °C for the second.

First: CSc1sc(C(=O)N(C)C)c2c1C(=O)CC(C)(C)C2
Second: COC(=O)Cc1cccc2c1NC(=O)C2
The melting point of the first is lower: 135 to 136 °C for the first, 156 to 157 °C for the second.

First: Nc1cc(F)c(NCC(O)CO)cc1[N+](=O)[O-] (configuration not stated)
Second: CCOC(=O)c1cc(OCC)c(OCC)cc1[N+](=O)[O-]
The melting point of the first is higher: 129 to 130 °C for the first, 53 to 54 °C for the second.

First: Cc1c(CO)ncc(Br)c1N1CCCCC1
Second: COc1cc(OC)c2c(=O)[nH]c(-c3cc(C)c(OCCCCN4CCCC4)c(C)c3)nc2c1
The melting point of the first is lower: 80 to 81 °C for the first, 180 to 181 °C for the second.

First: CS(=O)(=O)Oc1cccc2c1C(=O)OC2=O
Second: CCCCOC(=O)c1cc(OC(=O)OC)c2c(c1)C(=O)c1cccc(OC(=O)OC)c1C2=O
The melting point of the first is lower: 134 to 140 °C for the first, 200 to 202 °C for the second.

`Cc1ccc(S(=O)(=O)NC(=S)NC23CC4CC(CC(C4)C2)C3)cc1` and `CS(=O)(=O)c1ccc(SC2SCC(O)C(O)C2O)cc1` (configuration not stated) cannot be ordered by melting point: 170 to 173 °C for the first, 169 to 172 °C for the second.

First: CC(C)=NOCc1nc2c(N)nc3cc(Br)cnc3c2n1CC(C)C
Second: CC(C)Cn1nnc2cc3c(=O)n(C(C)Cn4ncnn4)nnc3cc2c1=O (configuration not stated)
The melting point of the first is higher: 176 to 178 °C for the first, 132 to 134 °C for the second.

Compared with `CCC(=CC(CSc1nc2ccccc2s1)=NO)C(C)[N+](=O)[O-]` (configuration not stated), `Cc1ccc(C#N)c(Nc2ccccc2[N+](=O)[O-])c1` is higher in melting point: 102 to 103 °C for the first, 162 to 164 °C for the second.

First: COc1ccc(C=C(Cl)Cl)c(C(=O)O)c1
Second: COc1ccc(Oc2c([N+](=O)[O-])cc(C(=O)O)cc2S(N)(=O)=O)cc1
The melting point of the first is lower: 164 to 166 °C for the first, 229 to 230 °C for the second.

First: COc1ccc2c(c1)CCC1=C2CCC(=O)N1
Second: O=c1oc2cc(OCC3CO3)ccc2c2c1CCCC2 (configuration not stated)
The melting point of the first is higher: 203 to 204 °C for the first, 120 to 121 °C for the second.

First: CC(=O)N=C1C(OC(C)=O)=C(NC(C)=O)C2CC(=O)CC1C2NC(C)=O (configuration not stated)
Second: CCC1CCN(C(=O)C(Cc2c[nH]cn2)NC(=O)C2CCC(=O)N2)C1C(N)=O (racemic)
The melting point of the first is higher: 174 to 176 °C for the first, 156 to 160 °C for the second.

Compared with `C/C(=C\c1ccc(CO)cc1)c1ccc2c(c1)C(C)(C)CCC2(C)C`, `Cc1c(NC(=O)c2ccc(OCC3CCOC3)cc2)ccc2cc(CNCC(C)C)cnc12` (configuration not stated) is higher in melting point: 123 to 124 °C for the first, 132 °C for the second.

First: O=C(NCCO)C(F)(OC(F)(F)C(F)(F)C(F)(F)F)C(F)(F)F (configuration not stated)
Second: CSc1cc(Cl)ccc1C(=O)C(C#N)C(=O)c1cc(C(F)(F)F)cc(C(F)(F)F)c1 (configuration not stated)
The melting point of the first is lower: 69 to 72 °C for the first, 146 to 149 °C for the second.

First: CCC(=O)c1cc2c(s1)CCCN(CCCCCl)C2=O
Second: COC(=O)c1cc(C(=O)NCCN2CCOCC2)cc(-n2cccc2)c1
The melting point of the first is lower: 91 to 92 °C for the first, 144 to 146 °C for the second.

First: Cc1c(C(=O)N(C)Cc2ccc3c(Br)c(OCc4nnn[nH]4)ccc3c2)oc2ccccc12
Second: CCN(CC)S(=O)(=O)c1cc2oc(-c3ccccc3)nc2c2ccccc12
The melting point of the first is higher: 164 to 166 °C for the first, 157 °C for the second.

First: COc1ccnc(C(C)Sc2nc3cc(OC(F)(F)C(F)F)ccc3[nH]2)c1 (configuration not stated)
Second: CN(C)c1nnc(-c2ccc3ncn(-c4ccc(OC(F)(F)F)cc4)c3c2)o1
The melting point of the first is lower: 78 to 81 °C for the first, 224 to 225 °C for the second.

First: CC(CCC(=O)O)(c1ccc(OCc2ccc3ccc(Cl)cc3n2)cc1)c1ccc(OCc2ccc3ccc(Cl)cc3n2)cc1
Second: O=S(=O)(Nc1ccc2c(OCc3ccc(-c4cccc(Cl)c4)cc3)cccc2c1)C(F)(F)F
The melting point of the first is lower: 88 to 90 °C for the first, 170 to 171 °C for the second.

First: COc1cc(N)c([N+](=O)[O-])c(OC(F)F)c1OC
Second: CCNc1nc(SC)ncc1C=Nc1cc(OC)cc(OC)c1Cl
The melting point of the first is lower: 141 to 142 °C for the first, 196 to 198 °C for the second.

First: NS(=O)(=O)c1ccc(NN=Cc2ccc(Cl)cc2)cc1
Second: COC(=O)C(=O)c1ccccc1Nc1c(Cl)cccc1Cl
The melting point of the first is higher: 181 to 182 °C for the first, 124 to 126 °C for the second.

Compared with `Clc1cc2c(nc1-c1ccccc1Br)OCC2`, `CC1CC(=O)CCC1c1ccccc1` (configuration not stated) is lower in melting point: 106 to 117 °C for the first, 71.5 to 72.5 °C for the second.

Compared with `N=C(N)NCCOc1ccc2c(c1)NC(=O)C(CCC(=O)O)C2` (configuration not stated), `COc1cccc(CC(=O)O)c1OCCCc1cn(-c2ccc(C(F)(F)F)cn2)nc1C1CCCCC1` is lower in melting point: 193 to 196 °C for the first, 140 to 141 °C for the second.

First: CCOCc1ncc[nH]1
Second: CCC(=O)NC1=NN(c2ccc(F)cc2)C(C)C1 (configuration not stated)
The melting point of the first is higher: 205 to 206 °C for the first, 125 to 126 °C for the second.

First: COc1nn2ccccc2c1C(C)=O
Second: CC(Oc1ccc(F)cc1)C1CN(c2ccccc2)CCN1 (configuration not stated)
The melting point of the first is higher: 158 °C for the first, 80 to 82 °C for the second.

First: N#Cc1c(N2CCN(C(=O)c3ccc4ccccc4n3)CC2)c2ccccc2n(Cc2ccc(F)cc2)c1=O
Second: Nc1ccc(OCc2ccccc2)c(CCCc2ccc(NC(=O)Cc3cccnc3)cc2)c1
The melting point of the first is higher: 144 to 157 °C for the first, 110 to 112 °C for the second.

Compared with `O=S(=O)(c1cc(Cl)cc(Cl)c1)c1nnc(C(F)(F)F)s1`, `CC(Cl)=Cc1ccc([N+](=O)[O-])o1` is lower in melting point: 123 °C for the first, 55 to 65 °C for the second.

First: O=C(CS)NCC(=O)NCCS
Second: CC(C)[C@H](NC(=O)OCc1ccccc1)C(=O)NC(Cc1ccccc1)C(O)C(Cc1ccccc1)NC(=O)[C@@H](NC(=O)OC(C)(C)C)C(C)C (some centres not stated)
The melting point of the first is lower: 128 to 130 °C for the first, 184 °C for the second.

Compared with `CC(C)c1cc(CCC(=O)OCC(C)(C)C2OCC3(CO2)COC(C(C)(C)COC(=O)CCc2cc(C(C)C)c(O)c(C(C)(C)C)c2)OC3)cc(C(C)(C)C)c1O` (configuration not stated), `Cn1c(C=NNC(N)=S)cnc1[N+](=O)[O-]` is higher in melting point: 47 to 57 °C for the first, 282 to 287 °C for the second.
